Here are results for 21 compounds from patent publication US10035800B2 (AbbVie Inc., priority 2013, dated 2018).

Test [1] addresses T1, BRD4 (BDI_K57-E168) (Homo sapiens, UniProt O60885).
T1 construct: BD1: amino acids K57-E168; made in house
The experiment in a line: TR-FRET bromodomain binding assay, first bromodomain of BRD4. The settings on record: TR-FRET assay protocol G (compound 0.92 μM-15 pM); 100 nM probe. The procedure: (§1) Bromodomain Domain Binding Assay
(§2) A time-resolved fluorescence resonance energy transfer (TR-FRET) assay was used to determine the affinities of compounds of the Examples listed in Table 1 for each bromodomain of BRD4. His-tagged first (BD1: amino acids K57-E168) and second (BD2: amino acids […]) bromodomains of BRD4 were expressed and purified. An Alexa647-labeled BET-inhibitor was used as the fluorescent probe in the assay.
(§3) Compound dilution series were prepared in DMSO via an approximately 3-fold serial dilution from one of the following: […]
(§4) Assay method E: 0.47 mM to 7.8 nM […]
(§5) Assay method G: 0.047 mM to 0.78 nM
(§6) or 5-fold serial dilution from one of the following: […]
(§7) Assay method B: 2.5 mM-797 nM […]
(§8) For Assay methods B, E, and G: Compound dilutions were added directly into white, low-volume assay plates (Perkin Elmer Proxiplate 384 Plus#6008280) using a Labcyte Echo in conjunction with Labcyte Access and Thermo Multidrop CombinL robotics. Compounds were then suspended in eight microliters (μL) of assay buffer (20 mM Sodium Phosphate, pH 6.0, 50 mM NaCl, 1 mM Ethylenediaminetetraacetic acid disodium salt dihydrate, 0.01% Triton X-100, 1 mM DL-Dithiothreitol) containing His-tagged bromodomain, Europium-conjugated anti-His antibody (Invitrogen PV5596) and Alexa-647-conjugated probe.
(§9) The final concentration of 1× assay mixture for assay methods A, B, C, D, E, F, and G contains 2% DMSO, 8 nM His-tagged bromodomain, 1 nM Europium-conjugated anti-His-tag antibody and 100 nM or 30 nM probe (for BDI or BDII, respectively) and compound concentration in the range of: 50 μM-16 nM for method A, 49.02 μM-15.63 nM for method B, 25 μM-423 pM for method C, 10 μM-169 pM for method D, 9.19 μM-150 pM for method E, 5 μM-85 pM for method F, and 0.92 μM-15 pM for method G.
(§10) After a one-hour equilibration at room temperature, TR-FRET ratios were determined using an Envision multilabel plate reader (Ex 340, Em 495/520).
(§11) TR-FRET data were normalized to the means of 24 no-compound controls (“high”) and 8 controls containing 1 μM un-labeled probe (“low”). Percent inhibition was plotted as a function of compound concentration and the data were fit with the 4 parameter logistic equation to obtain IC50s. Inhibition constants (Ki) were calculated from the IC50s, probe Kd and probe concentration. Typical Z′ values were between 0.65 and 0.75. The minimum significant ratio was determined to evaluate assay reproducibility (Eastwood et al., (2006) J Biomol Screen, 11: 253-261). The MSR was determined to be 2.03 for BDI and 1.93 for BDII, and a moving MSR (last six run MSR overtime) for both BDI and BDII was typically <3.
A general note: TR-FRET usually uses a lanthanide donor and a delayed reading to cut background.

For test [2], the target named is T2, BRD4 (BDII_E352-M457) (Homo sapiens, UniProt O60885).
T2 construct: protocol; made in house
In words: TR-FRET bromodomain binding assay, second bromodomain of BRD4. The settings on record: TR-FRET assay protocol G (compound 0.92 μM-15 pM); 30 nM probe. The procedure:
as §1, §2, §3, §4, §5, §6, §7, §8, §9, §10, §11

A value given as a limit tells only on which side of the number the result lay.

By Ki is commonly meant the dissociation constant of the complex between target and ligand, obtained from inhibition or displacement. A high value points to a looser hold on the target. On to `CC(C)C(=O)N1Cc2c[nH]c3c(=O)n(C)cc(c23)-c2cc(CS(C)(=O)=O)ccc21` [Example 54, 4-isobutyryl-10-methyl-7-((methylsulfonyl)methyl)-3,4-dihydro-1H-1,4,10-triazadibenzo[cd,f]azulen-11(10H)-one], for which the results for the Ki in test [1] and in test [2] were 5.85 nM and 1.45 nM, respectively.

Regarding `Cn1cc2c3c(c[nH]c3c1=O)CN(/C=C(/C=C/c1ccccc1)c1ccccc1)c1c(F)cc(F)cc1-2` [Example 57, 4-((1Z,3E)-2,4-diphenylbuta-1,3-dien-1-yl)-5,7-difluoro-10-methyl-3,4-dihydro-1H-1,4,10-triazadibenzo[cd,f]azulen-11(10H)-one], the Ki was determined as 64.7 nM in test [1] and 90.6 nM in test [2].

As to `CCc1ccc(CCNC(=O)N2Cc3c[nH]c4c(=O)n(C)cc(c34)-c3cc(CS(C)(=O)=O)ccc32)cc1` [Example 63, N-(4-ethylphenethyl)-10-methyl-7-((methylsulfonyl)methyl)-11-oxo-10,11-dihydro-1H-1,4,10-triazadibenzo[cd,f]azulene-4(3H)-carboxamide], the Ki in test [1] turned out to be 82.2 nM; in test [2], 73.6 nM.

Consider `COc1cccc(CNC(=O)N2Cc3c[nH]c4c(=O)n(C)cc(c34)-c3cc(CS(C)(=O)=O)ccc32)c1` [Example 65, N-(3-methoxybenzyl)-10-methyl-7-((methylsulfonyl)methyl)-11-oxo-10,11-dihydro-1H-1,4,10-triazadibenzo[cd,f]azulene-4(3H)-carboxamide], for which the inhibitory constant (Ki) is more than 238 nM in test [1] and 238 nM in test [2].

Consider `Cn1cc2c3c(c[nH]c3c1=O)CN(C(=O)NCC1CCCCC1)c1ccc(CS(C)(=O)=O)cc1-2` [Example 67, N-(cyclohexylmethyl)-10-methyl-7-((methylsulfonyl)methyl)-11-oxo-10,11-dihydro-1H-1,4,10-triazadibenzo[cd,f]azulene-4(3H)-carboxamide], for which the figures for the Ki in test [1] and in test [2] were more than 238 nM and more than 408 nM, respectively.

For `Cn1cc2c3c(c[nH]c3c1=O)CN(C(=O)Nc1ccc(F)c(C(F)(F)F)c1)c1ccc(CS(C)(=O)=O)cc1-2` [Example 71, N-(4-fluoro-3-(trifluoromethyl)phenyl)-10-methyl-7-((methylsulfonyl)methyl)-11-oxo-10,11-dihydro-1H-1,4,10-triazadibenzo[cd,f]azulene-4(3H)-carboxamide], the Ki in test [1] was found to be 30.4 nM; in test [2] it was 26.7 nM.

As for `CCOC(=O)C1CCC(CNC(=O)N2Cc3c[nH]c4c(=O)n(C)cc(c34)-c3cc(CS(C)(=O)=O)ccc32)CC1` (stereo not drawn) [Example 72, ethyl 4-((10-methyl-7-((methylsulfonyl)methyl)-11-oxo-3,4,10,11-tetrahydro-1H-1,4,10-triazadibenzo[cd,f]azulene-4-carboxamido)methyl)cyclohexanecarboxylate], the values for the Ki in test [1] and in test [2] were 26.2 nM and 37 nM, respectively.

On to `Cc1ccc(S(=O)(=O)N2Cc3c[nH]c4c(=O)n(C)cc(c34)-c3cc(CS(C)(=O)=O)ccc32)cc1` [Example 74, 10-methyl-7-((methylsulfonyl)methyl)-4-tosyl-3,4-dihydro-1H-1,4,10-triazadibenzo[cd,f]azulen-11(10H)-one], for which the inhibitory constant (Ki) was more than 238 nM in test [1] and 369 nM in test [2].

In the case of `COc1ccc(S(=O)(=O)N2Cc3c[nH]c4c(=O)n(C)cc(c34)-c3cc(CS(C)(=O)=O)ccc32)cc1` [Example 76, 4-((4-methoxyphenyl)sulfonyl)-10-methyl-7-((methylsulfonyl)methyl)-3,4-dihydro-1H-1,4,10-triazadibenzo[cd,f]azulen-11(10H)-one], the Ki in test [1] is more than 238 nM; in test [2], more than 408 nM.

Consider `Cn1cc2c3c(c[nH]c3c1=O)CN(S(=O)(=O)c1ccccc1)c1ccc(CS(C)(=O)=O)cc1-2` [Example 77, 10-methyl-7-((methylsulfonyl)methyl)-4-(phenylsulfonyl)-3,4-dihydro-1H-1,4,10-triazadibenzo[cd,f]azulen-11(10H)-one], for which the Ki in test [1] is more than 238 nM; in test [2], 275 nM.

Take `COc1ccccc1S(=O)(=O)N1Cc2c[nH]c3c(=O)n(C)cc(c23)-c2cc(CS(C)(=O)=O)ccc21` [Example 78, 4-((2-methoxyphenyl)sulfonyl)-10-methyl-7-((methylsulfonyl)methyl)-3,4-dihydro-1H-1,4,10-triazadibenzo[cd,f]azulen-11(10H)-one]: the Ki came out at 216 nM in test [1] and 126 nM in test [2].

In the case of `Cn1cc2c3c(c[nH]c3c1=O)CN(S(=O)(=O)c1ccc(Oc3ccccc3)cc1)c1ccc(CS(C)(=O)=O)cc1-2` [Example 79, 10-methyl-7-((methylsulfonyl)methyl)-4-((4-phenoxyphenyl)sulfonyl)-3,4-dihydro-1H-1,4,10-triazadibenzo[cd,f]azulen-11(10H)-one], the inhibition constant Ki was more than 238 nM in test [1] and more than 408 nM in test [2].

`Cn1cc2c3c(c[nH]c3c1=O)CN(S(=O)(=O)c1ccc(F)cc1)c1ccc(CS(C)(=O)=O)cc1-2` [Example 80, 4-((4-fluorophenyl)sulfonyl)-10-methyl-7-((methylsulfonyl)methyl)-3,4-dihydro-1H-1,4,10-triazadibenzo[cd,f]azulen-11(10H)-one]: the figures for the Ki in test [1] and in test [2] were more than 238 nM and more than 408 nM, respectively.

For the compound `Cn1cc2c3c(c[nH]c3c1=O)CN(C(=O)c1ccc3ccccc3c1)c1ccc(CS(C)(=O)=O)cc1-2` [Example 81, 4-(2-naphthoyl)-10-methyl-7-((methylsulfonyl)methyl)-3,4-dihydro-1H-1,4,10-triazadibenzo[cd,f]azulen-11(10H)-one], the values for the inhibitory constant (Ki) in test [1] and in test [2] were 51.7 nM and 32.3 nM, respectively.

With `Cn1cc2c3c(c[nH]c3c1=O)CN(c1ccc(F)cc1F)c1ncncc1-2` [Example 83, 4-(2,4-difluorophenyl)-10-methyl-3,4-dihydro-1H-1,4,5,7,10-pentaazadibenzo[cd,f]azulen-11(10H)-one], the Ki in test [1] is more than 238 nM; in test [2] it was more than 408 nM.

Take `COCCOC(=O)N1Cc2c[nH]c3c(=O)n(C)cc(c23)-c2cc(CS(C)(=O)=O)ccc21` [Example 86, 2-methoxyethyl 10-methyl-7-((methylsulfonyl)methyl)-11-oxo-10,11-dihydro-1H-1,4,10-triazadibenzo[cd,f]azulene-4(3H)-carboxylate]: the Ki in test [1] was determined as 10.3 nM; in test [2] it was 13.9 nM.

As to `CCCCCOC(=O)N1Cc2c[nH]c3c(=O)n(C)cc(c23)-c2cc(CS(C)(=O)=O)ccc21` [Example 88, pentyl 10-methyl-7-((methylsulfonyl)methyl)-11-oxo-10,11-dihydro-1H-1,4,10-triazadibenzo[cd,f]azulene-4(3H)-carboxylate], the Ki in test [1] turned out to be 3.46 nM; in test [2], 1.76 nM.

In the case of `Cn1cc2c3c(c[nH]c3c1=O)CN(C(=O)OCCCCCl)c1ccc(CS(C)(=O)=O)cc1-2` [Example 89, 4-chlorobutyl 10-methyl-7-((methylsulfonyl)methyl)-11-oxo-10,11-dihydro-1H-1,4,10-triazadibenzo[cd,f]azulene-4(3H)-carboxylate], the results for the inhibition constant Ki in test [1] and in test [2] were 5.77 nM and 4.53 nM, respectively.

With `Cn1cc2c3c(c[nH]c3c1=O)CN(C(=O)OCC(C)(C)C)c1ccc(CS(C)(=O)=O)cc1-2` [Example 92, neopentyl 10-methyl-7-((methylsulfonyl)methyl)-11-oxo-10,11-dihydro-1H-1,4,10-triazadibenzo[cd,f]azulene-4(3H)-carboxylate], the Ki in test [1] is 3.74 nM; in test [2], 5.58 nM.

`Cn1cc2c3c(c[nH]c3c1=O)CN(C(=O)OCCF)c1ccc(CS(C)(=O)=O)cc1-2` [Example 96, 2-fluoroethyl 10-methyl-7-((methylsulfonyl)methyl)-11-oxo-10,11-dihydro-1H-1,4,10-triazadibenzo[cd,f]azulene-4(3H)-carboxylate]: the inhibitory constant (Ki) in test [1] is 3.46 nM; in test [2], 1.61 nM.

Regarding `COc1ccc(OC(=O)N2Cc3c[nH]c4c(=O)n(C)cc(c34)-c3cc(CS(C)(=O)=O)ccc32)cc1` [Example 97, 4-methoxyphenyl 10-methyl-7-((methylsulfonyl)methyl)-11-oxo-10,11-dihydro-1H-1,4,10-triazadibenzo[cd,f]azulene-4(3H)-carboxylate], the Ki in test [1] was determined as 3.21 nM; in test [2], 1.35 nM.
